Ends that are not written are not given here.

Test in all cases: biochemical
What all share (format): binding
Conditions in all cases: for inhibition at 250 µM: 24 h, read-out: Binding percentage

In experiment [1] the target is HLA-DRB1*1101 (Homo sapiens, UniProt P01903+P01911, A100R/A169T/A87E/I96F/K41T/L162R/M171V/P40S/Q125H/Q178H/Q39Y/Q99D/R42S/S66Y/T262R/V115G/W38E).
For experiment [2], the target named is T1, HLA-DRB1*0401 (Homo sapiens, UniProt P01903+P01911, A100K/A169T/F76Y/I96L/K127E/L162R/M171V/N62H/P40V/Q125Y/R42H/S133A/S149N/S66Y/V115G/V209L/W38E).
T1 construct: homozygous lymphoblastoid B-cell lines (International Histocompatibility Working Group); host or cells: human HLA-DRB1*0401 homozygous lymphoblastoid B-cell line

Experiment [3] has as its target HLA-DRB1*1302 (Homo sapiens, UniProt P01903+P01911, A100E/A169T/K41T/L162R/M171V/P40S/Q125H/Q178H/Q39Y/Q99D/R42S/S66N/T262R/V115G/W38E/Y61H).
Experiment [4] deals with HLA-DRB1*0701 (Homo sapiens, UniProt P01903+P01911, A100R/A102G/A103Q/D57E/D86V/E43K/F76Y/K127E/L162R/M171V/P40G/Q125H/Q99D/R33Q/R42Y/R54Q/S133A/S66F/T210M/V115G/Y107V/Y59L/Y89S).

HLA-DRB1*1101, sequence (P01903 26-254 limits assumed, other chains not shown): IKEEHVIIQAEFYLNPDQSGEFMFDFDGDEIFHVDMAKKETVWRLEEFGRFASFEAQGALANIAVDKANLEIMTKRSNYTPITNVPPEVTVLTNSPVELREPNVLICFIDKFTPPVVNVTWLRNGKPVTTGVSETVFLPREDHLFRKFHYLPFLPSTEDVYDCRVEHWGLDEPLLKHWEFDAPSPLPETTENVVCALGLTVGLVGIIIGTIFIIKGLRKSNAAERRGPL
HLA-DRB1*1302, sequence (P01903 26-254 limits assumed, other chains not shown): as above

Consider RGPVNYHFSNYMNLD [compound 39047], for which the inhibition at 250 µM in experiment [1] was found to be 0%; in experiment [2], 59.8%; in experiment [3], 37.8%; in experiment [4], 90.4%. Moreover, the IC50 (usually the concentration that gives 50% inhibition) in experiment [2] amounted to 54.5 µM; in experiment [4], 6 µM.
Consider LFYVNLFIMSSLSRK [compound 39152], for which the IC50 was 1.9 µM in experiment [1], 2.8 µM in experiment [2] and 8 µM in experiment [3]. For the same sequence, the inhibition at 250 µM in experiment [1] was 91.8%; in experiment [2] it was 65.8%; in experiment [3], 94.7%; in experiment [4] it was 11%.
As to LKFIVRGNNLKFLNN [compound 39154], the inhibition at 250 µM in experiment [1] came out at 24.9%; in experiment [2], 22.2%; in experiment [3], 90.1%; in experiment [4] it was 43.7%. For the same sequence, the IC50 in experiment [3] was found to be 6.5 µM.
As to MKLLQHIPANLLENI [compound 39153], the IC50 is 52.1 µM in experiment [1], 57 µM in experiment [2], 10.7 µM in experiment [3] and 7.5 µM in experiment [4]. Further, the inhibition at 250 µM is 72.7% in experiment [1], 61.2% in experiment [2], 91.9% in experiment [3] and 85.4% in experiment [4].

For the origin of these results see paper PMC5962679 (Frontiers in Cellular and Infection Microbiology, 2018).
